A short description of series [1]: Tmax in Japanese chronic pain patient at 600 to 1000 mg, po administered as single dose by fluorescence polarization immunoassay. Type of series: ADME, organism-based. As to conditions: human, in vivo. Background: In fluorescence polarisation assays a small probe gives low polarisation when free and higher when bound to something large.
Series [2] can be described thus: Apparent volume of distribution in Japanese chronic pain patient (5 patients) at 800 +/- 141 mg, po administered as single dose by fluorescence polarization immunoassay. The settings on record: human, in vivo. In kind it is ADME, organism-based.
Series [3] deals with Homo sapiens. The experiment in a line: AUC (0 to infinity) in Japanese healthy volunteer (5 volunteers) assessed as acetaminophen-glucuronide at 1000 mg, po by HPLC method. The settings on record: in vivo. Type of series: ADME, organism-based. Also noted: dose 1000 mg, time infinity, route oral.
Series [4] relates to Homo sapiens. The experiment in a line: AUC (0 to infinity) in Japanese healthy volunteer (5 volunteers) assessed as acetaminophen-sulfate at 1000 mg, po by HPLC method. In kind it is ADME, organism-based. The settings on record: in vivo. Details: dose 1000 mg, route oral, time infinity.
For series [5], the system named is Homo sapiens. The experiment in a line: Analgesic activity in po dosed Japanese chronic pain patient (5 patients) assessed as compound dose require to cause 50% maximum pain relief score administered as single dose measured over 15 mins to 6 hrs. Type of series: functional, organism-based.
Series [6] deals with Homo sapiens. As to the kind of experiment: AUC (0 to infinity) in Japanese healthy volunteer (5 volunteers) assessed as acetaminophen-cysteine at 1000 mg, po by HPLC method. In kind it is ADME, organism-based. Details: dose 1000 mg, time infinity, route oral. The settings on record: in vivo.
The nature of series [7]: Drug uptake in human after 4 hrs. The settings on record: in vivo, read-out: Drug uptake. In kind it is ADME, organism-based.
Series [8] has as its system Homo sapiens. The experiment in a line: Toxicity in Japanese chronic pain patient at 600 to 1000 mg, po administered as single dose. Type of series: organism-based. As to conditions: in vivo.
For series [9], the system named is Homo sapiens. As to the kind of experiment: Drug metabolism in Japanese healthy volunteer assessed as acetaminophen-cysteine metabolite formation at 1000 mg, po by HPLC method. Type of series: ADME, organism-based. The settings on record: in vivo.
Series [10] in a line: Drug uptake in Japanese chronic pain patient at 600 to 1000 mg, po administered as single dose after 4 hrs by fluorescence polarization immunoassay. In kind it is ADME, organism-based. As to conditions: human, in vivo, read-out: Drug uptake.
The nature of series [11]: Tmax in Japanese healthy volunteer (5 volunteers) at 1000 mg, po by HPLC method. Type of series: ADME, organism-based. The settings on record: human, in vivo.
Series [12] is described as follows: Apparent volume of distribution in Japanese healthy volunteer (5 volunteers) at 1000 mg, po by HPLC method. In kind it is ADME, organism-based. The settings on record: human, in vivo.
The nature of series [13]: Cmax in Japanese healthy volunteer (5 volunteers) at 1000 mg, po by HPLC method. In kind it is ADME, organism-based. Also noted: dose 1000 mg, route oral. As to conditions: human, in vivo.
Series [14] has as its system Homo sapiens. As to the kind of experiment: Toxicity in Japanese healthy volunteer (5 volunteers) at 1000 mg, po. Type of series: organism-based. The settings on record: in vivo.
Series [15] deals with Homo sapiens. As to the kind of experiment: Analgesic activity in Japanese chronic pain patient (5 patients) assessed as sigmoid factor at 800 +/- 141 mg, po administered as single dose measured over 15 mins to 6 hrs. In kind it is functional.
For series [16], the system named is Homo sapiens. As to the kind of experiment: Analgesic activity in Japanese chronic pain patient (5 patients) assessed as maximum pain relief score at 800 +/- 141 mg, po administered as single dose measured over 15 mins to 6 hrs. In kind it is functional.
Series [17] is described as follows: AUC (0 to infinity) in Japanese healthy volunteer (5 volunteers) at 1000 mg, po by HPLC method. In kind it is ADME, organism-based. Also noted: dose 1000 mg, route oral, time infinity. The settings on record: human, in vivo.
The subject of series [18] is Homo sapiens. The experiment in a line: Drug level in Japanese healthy volunteer treated with acetaminophen at 1000 mg, po by HPLC method. Type of series: ADME, organism-based. The settings on record: in vivo.

In brackets after ≈: the same amount, converted by molar mass.

Usually Tmax stands for the time from dosing to the highest level. The term Vd/F denotes the apparent distribution volume after extravascular dosing. As usually defined, the EC50 is the midpoint of the concentration-response curve. Usually Cmax stands for the highest concentration seen after dosing. What is called AUC(0-inf) is total exposure, with the tail of the curve extrapolated.

Consider `CC(=O)Nc1ccc(O)cc1` [ACETAMINOPHEN], for which the Tmax in series [1] and in series [11] was 30 min in each case. For the same compound, the figures for the Vd/F in series [2] and in [12] were 30.9 L and 69.7 L, respectively. In addition, the AUC turned out to be 66000 ng·h/mL in the series on Homo sapiens [3], 21000 ng·h/mL in the series with Homo sapiens [4] and 3700 ng·h/mL in the series with Homo sapiens [6]. Besides, the EC50 with Homo sapiens [5] is 2 µg/mL (≈ 13.2 µM). The figures for the concentration at 4 h in series [7] and in series [10] were 120000 ng/mL and 6700 ng/mL, respectively. Also, the Activity entry with Homo sapiens [8] was “Non-toxic”; with Homo sapiens [14], “Non-toxic”; with Homo sapiens [15] it was 1.3. Also, the Drug metabolism with Homo sapiens [9] was < 0.2 µg/mL. Moreover, the Cmax in series [13] is 17700 ng/mL. Besides, the Emax in the series with Homo sapiens [16] turned out to be 4.6. Moreover, the AUC(0-inf) in [17] was 77800 ng·h/mL.

As for `CC(=O)Nc1ccc(O)c(SC[C@H](N)C(=O)O)c1`, in the series with Homo sapiens [18], the Drug metabolism entry is “metabolite_detected”.

The values above are taken from ChEMBL document CHEMBL3785018, “Pharmacokinetics/pharmacodynamics of acetaminophen analgesia in Japanese patients with chronic pain” (Biol Pharm Bull, 2007).
